Experimental data published in patent US8283342B2, “Napadisylate salt of 5-(2-{[6-(2,2-difluoro-2-phenylethoxy) hexyl]amino}-1-hydroxyethyl)-8-hydroxyquinolin-2(1H)-one as agonist of the β2 adrenergic receptor” (Almirall S.A., priority 2007, dated 2012).

Key:
[1] = Thermogravimetric (TGA) analysis; format: physicochemical
Description: The thermogravimetric (TGA) analysis was obtained using a TGA-SDTA-851 Mettler-Toledo, serial number 5118408555. Samples were placed into a tared aluminium pan and then positioned on a platinum crucible. Samples were heated from 30° C. at 10° C./min to 350° C. The instrument was calibrated using indium and aluminium standards.

[2] = Differential scanning calorimetry (DSC) analysis; format: physicochemical; conditions: equilibrated at 30° C., heated at 10° C./min to 300° C.
Description: The differential scanning calorimetry (DSC) analysis was obtained using a DSC-821 Mettler-Toledo, serial number 5117423874. Samples were weighed into an aluminium pan, an aluminium lid placed on top of the sample and compressed with a brass rod. Samples were equilibrated at 30° C. and heated at 10° C./min to 300° C. The instrument was calibrated using indium and zinc standards.

- weight loss due to the decomposition of the sample ([1]; from approximately 200° C. to 220° C., heated from 30° C. at 10° C./min to 350° C.): 3.1 % w/w
- hygroscopicity (no solvent/water release) ([1]; prior to 200° C., in particular at 80-100° C., no change): lack of hygroscopicity
- stability (no changes prior to the melting point range; no conversion into other polymorphs, no decomposition) [2]: high stability
Compound: O=S(=O)(O)c1cccc2c(S(=O)(=O)O)cccc12.O=c1ccc2c([C@@H](O)CNCCCCCCOCC(F)(F)c3ccccc3)ccc(O)c2[nH]1.O=c1ccc2c([C@@H](O)CNCCCCCCOCC(F)(F)c3ccccc3)ccc(O)c2[nH]1 [5-(-2-(6-(2,2-Difluoro-2-phenylethoxy)hexylamino)-1(R)-hydroxyethyl)-8-hydroxyquinolin-2(1H)-one heminapadisylate]
